What was measured:
[1] = Inhibition of rice alpha-glucosidase by Lineweaver-Burk plot analysis; design: species or system Oryza sativa
[2] = Inhibition of Aspergillus niger alpha-glucosidase by Lineweaver-Burk plot analysis
[3] = test system: Mus musculus; experiment: Hypoglycemic activity in C57BL/6J mouse assessed as postprandial blood glucose level at 0.5 mg/kg measured after 30 mins by maltose tolerance test (reference value: 368.49 +/-31.28 mg/dl); format: functional
[4] = test system: Mus musculus; experiment: Hypoglycemic activity in C57BL/6J mouse assessed as postprandial blood glucose level at 1 mg/kg measured after 30 mins by maltose tolerance test (reference value: 368.49 +/-31.28 mg/dl); format: functional; details: 0.5 h
[5] = test system: Mus musculus; experiment: Hypoglycemic activity in C57BL/6J mouse assessed as postprandial blood glucose level at 2 mg/kg measured after 30 mins by maltose tolerance test (reference value: 368.49 +/-31.28 mg/dl); format: functional; details: 0.5 h
[6] = test system: Mus musculus; experiment: Hypoglycemic activity in C57BL/6J mouse assessed as reduction in postprandial blood glucose level at 0.5 mg/kg measured after 15 mins by maltose tolerance test; format: functional; details: 0.25 h
[7] = test system: Mus musculus; experiment: Hypoglycemic activity in C57BL/6J mouse assessed as reduction in postprandial blood glucose level at 1 mg/kg measured after 15 mins by maltose tolerance test; format: functional; details: 0.25 h
[8] = test system: Mus musculus; experiment: Hypoglycemic activity in C57BL/6J mouse assessed as reduction in postprandial blood glucose level at 2 mg/kg measured after 15 mins by maltose tolerance test; format: functional; details: 0.25 h
[9] = test system: Mus musculus; experiment: Hypoglycemic activity in C57BL/6J mouse assessed as reduction in postprandial blood glucose level at 0.5 mg/kg measured after 30 mins by maltose tolerance test; format: functional; details: 0.5 h
[10] = test system: Mus musculus; experiment: Hypoglycemic activity in C57BL/6J mouse assessed as reduction in postprandial blood glucose level at 1 mg/kg measured after 30 mins by maltose tolerance test; format: functional; details: 0.5 h
[11] = test system: Mus musculus; experiment: Hypoglycemic activity in C57BL/6J mouse assessed as reduction in postprandial blood glucose level at 2 mg/kg measured after 30 mins by maltose tolerance test; format: functional; details: 0.5 h
[12] = test system: Mus musculus; experiment: Hypoglycemic activity in C57BL/6J mouse assessed as reduction in postprandial blood glucose level per DNJ unit at 0.5 to 1 mg/kg measured after 30 mins by maltose tolerance test relative to Miglitol; format: functional; details: dose 0.5-1 mg/kg
[13] = Inhibition of alpha-glucosidase in Kunming mouse using p-nitrophenyl-alpha-glycopyranoside as substrate by Lineweaver-Burk plot analysis
[14] = target: T1, Alpha-mannosidase (Canavalia ensiformis, UniProt C0HJB3); experiment: Inhibition of jack bean alpha-mannosidase
T1 sequence (C0HJB3 whole entry): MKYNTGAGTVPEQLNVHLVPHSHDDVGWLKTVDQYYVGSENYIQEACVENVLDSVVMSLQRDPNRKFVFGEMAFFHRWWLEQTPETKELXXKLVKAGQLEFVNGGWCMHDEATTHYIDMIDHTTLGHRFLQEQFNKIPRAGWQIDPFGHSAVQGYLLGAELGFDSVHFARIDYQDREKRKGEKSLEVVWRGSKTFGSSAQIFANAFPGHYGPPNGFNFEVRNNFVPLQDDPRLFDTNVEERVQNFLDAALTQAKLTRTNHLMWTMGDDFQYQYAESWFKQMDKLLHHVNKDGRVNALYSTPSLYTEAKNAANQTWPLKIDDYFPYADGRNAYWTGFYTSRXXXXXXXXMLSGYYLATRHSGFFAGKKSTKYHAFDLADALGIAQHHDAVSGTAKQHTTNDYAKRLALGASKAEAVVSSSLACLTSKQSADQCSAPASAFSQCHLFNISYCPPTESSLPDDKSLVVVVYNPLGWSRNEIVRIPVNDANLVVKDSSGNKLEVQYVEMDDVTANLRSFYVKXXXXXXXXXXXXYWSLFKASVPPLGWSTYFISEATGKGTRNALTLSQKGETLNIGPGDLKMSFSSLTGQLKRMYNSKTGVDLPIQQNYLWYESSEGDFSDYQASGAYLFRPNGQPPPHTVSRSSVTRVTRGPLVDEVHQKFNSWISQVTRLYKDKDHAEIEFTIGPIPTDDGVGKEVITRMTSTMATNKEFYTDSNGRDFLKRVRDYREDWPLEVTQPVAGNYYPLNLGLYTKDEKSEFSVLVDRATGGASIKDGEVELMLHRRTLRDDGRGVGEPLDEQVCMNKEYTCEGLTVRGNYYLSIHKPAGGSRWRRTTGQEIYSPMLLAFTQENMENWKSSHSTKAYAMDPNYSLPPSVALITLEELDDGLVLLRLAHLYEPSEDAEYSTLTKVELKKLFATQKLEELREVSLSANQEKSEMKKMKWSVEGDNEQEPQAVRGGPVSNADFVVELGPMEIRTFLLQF

[15] = Cytotoxicity against human GES1 cells assessed as cell viability at 125 uM; format: toxicity, cell-based; details: read-out: Activity
[16] = test system: Mus musculus; experiment: Hypoglycemic activity in C57BL/6J mouse assessed as reduction in postprandial blood glucose level per DNJ nit at 0.5 to 2 mg/kg measured after 15 mins by maltose tolerance test relative to Miglitol; format: functional; details: dose 0.5-2 mg/kg, 0.25 h
[17] = Toxicity in C57BL/6J mouse assessed as hepatic pathological changes by measuring hepatocytes distributed radially around the central veins at 2 mg/kg administered for 7 days by hematoxylin-eosin staining based analysis; format: organism-based; details: in vivo, 168 h, time 7 day
[18] = Toxicity in C57BL/6J mouse assessed as heart pathological morphological changes at 2 mg/kg administered for 7 days by hematoxylin-eosin staining based analysis; format: organism-based; details: in vivo, 168 h, time 7 day
[19] = Toxicity in C57BL/6J mouse assessed as spleen pathological morphological changes at 2 mg/kg administered for 7 days by hematoxylin-eosin staining based analysis; format: organism-based; details: in vivo, 168 h, time 7 day
[20] = Toxicity in C57BL/6J mouse assessed as lungs pathological morphological changes at 2 mg/kg administered for 7 days by hematoxylin-eosin staining based analysis; format: organism-based; details: in vivo, 168 h, time 7 day
[21] = Toxicity in C57BL/6J mouse assessed as kidneys pathological morphological changes at 2 mg/kg administered for 7 days by hematoxylin-eosin staining based analysis; format: organism-based; details: in vivo, 168 h, time 7 day
[22] = Toxicity in C57BL/6J mouse assessed as change in body weight at 2 mg/kg administered for 7 days; format: organism-based; details: in vivo, 168 h, time 7 day
[23] = Hepatotoxicity in C57BL/6J mouse assessed as change in serum AST level at 2 mg/kg administered for 7 days; format: toxicity, organism-based; details: in vivo, 168 h, time 7 day
[24] = Hepatotoxicity in C57BL/6J mouse assessed as change in serum ALP level at 2 mg/kg administered for 7 days; format: toxicity, organism-based; details: in vivo, 168 h, time 7 day
[25] = Toxicity in C57BL/6J mouse assessed as change in GLU level at 2 mg/kg administered for 7 days; format: organism-based; details: in vivo, 168 h, time 7 day
[26] = Toxicity in C57BL/6J mouse assessed as change in CK level at 2 mg/kg administered for 7 days; format: organism-based; details: in vivo, 168 h, time 7 day
[27] = Renal toxicity in C57BL/6J mouse assessed as change in blood urea level at 2 mg/kg administered for 7 days; format: organism-based; details: in vivo, 168 h, time 7 day
[28] = Renal toxicity in C57BL/6J mouse assessed as change in blood uric acid level at 2 mg/kg administered for 7 days; format: organism-based; details: in vivo, 168 h, time 7 day
[29] = Toxicity in C57BL/6J mouse assessed as change in blood cholesterol level at 2 mg/kg administered for 7 days; format: organism-based; details: in vivo, 168 h, time 7 day
[30] = Toxicity in C57BL/6J mouse assessed as change in blood HDL level at 2 mg/kg administered for 7 days; format: organism-based; details: in vivo, 168 h, time 7 day
[31] = Toxicity in C57BL/6J mouse assessed as change in blood triglyceride level at 2 mg/kg administered for 7 days; format: organism-based; details: in vivo, 168 h, time 7 day
[32] = Toxicity in C57BL/6J mouse assessed as reduction in blood LDL level at 2 mg/kg administered for 7 days; format: organism-based; details: in vivo, 168 h, time 7 day
[33] = test system: Oryza sativa; experiment: Potency index, ratio of Miglitol Ki to test compound Ki for inhibition of rice alpha-glucosidase measured per DNJ unit
[34] = target: T2, Alpha-mannosidase (Canavalia ensiformis) (UniProt C0HJB3); experiment: Potency index, ratio of Miglitol Ki to test compound Ki for inhibition of jack bean alpha-mannosidase measured per DNJ unit
T2 sequence (whole entry): T1 sequence (C0HJB3 whole entry)

[35] = Hepatotoxicity in C57BL/6J mouse assessed as serum AST level at 2 mg/kg administered for 7 days (reference value: 221.38 +/-23.03 U/L); format: toxicity, organism-based; details: in vivo, 168 h, time 7 day
[36] = Hepatotoxicity in C57BL/6J mouse assessed as serum ALT level at 2 mg/kg administered for 7 days (reference value: 70.49 +/-8.78 U/L); format: toxicity, organism-based; details: in vivo, 168 h, time 7 day
[37] = Renal toxicity in C57BL/6J mouse assessed as blood urea level at 2 mg/kg administered for 7 days; format: organism-based; details: in vivo, 168 h, time 7 day
[38] = Renal toxicity in C57BL/6J mouse assessed as blood uric acid level at 2 mg/kg administered for 7 days; format: organism-based; details: in vivo, 168 h, time 7 day

Structure (SMILES) | Ki [1] [nM] | Ki [2] [nM] | Activity [3] [mg/dL] | Activity [4] [mg/dL] | Activity [5] [mg/dL] | inhibition in vivo at 0.5 mg/kg [6] [%] | inhibition in vivo at 1 mg/kg [7] [%] | inhibition in vivo at 2 mg/kg [8] [%] | inhibition in vivo at 0.5 mg/kg [9] [%] | inhibition in vivo at 1 mg/kg [10] [%] | inhibition in vivo at 2 mg/kg [11] [%] | fold change (FC) [12] | Ki [13] [nM] | Ki [14] [nM] | viability at 125 µM [15] [%] | fold change (FC) [16] | Activity [17] | Activity [18] | Activity [19] | Activity [20] | also measured
OCCN1C[C@H](O)[C@@H](O)[C@H](O)[C@H]1CO [MIGLITOL] | 180 | 20800 | 287.55 | 273.6 | 233.28 | 23.1 | 30 | 39.2 | 22 | 27.3 | 41 |  |  |  |  |  |  |  |  |  | 
O=C1c2cc(Cl)c3c4c(Oc5ccc(OCc6cn(CCCN7C[C@H](O)[C@@H](O)[C@H](O)[C@H]7CO)nn6)cc5)cc5c6c(cc(Oc7ccc(OCc8cn(CCCN9C[C@H](O)[C@@H](O)[C@H](O)[C@H]9CO)nn8)cc7)c(c7c(Oc8ccc(OCc9cn(CCCN%10C[C@H](O)[C@@H](O)[C@H](O)[C@H]%10CO)nn9)cc8)cc(c2c37)C(=O)N1Cc1cn(CCCN2C[C@H](O)[C@@H](O)[C@H](O)[C@H]2CO)nn1)c64)C(=O)N(Cc1cn(CCCN2C[C@H](O)[C@@H](O)[C@H](O)[C@H]2CO)nn1)C5=O | 10 | 8040 | 323.49 | 304.2 | 287.49 | 18 | 26.9 | 31.9 | 12.3 | 23.8 |  | 1.5 | 310 | 120 | 92 | 1.6 | Non-Toxic | Non-Toxic | Non-Toxic | Non-Toxic | Activity [21]: Non-Toxic; Activity [22]: Non-Toxic; Activity [23]: Non-Toxic; Activity [24]: Non-Toxic; Activity [25]: Non-Toxic; Activity [26]: Non-Toxic; Activity [27]: Non-Toxic; Activity [28]: Non-Toxic; Activity [29]: Non-Toxic; Activity [30]: Non-Toxic; Activity [31]: Non-Toxic; Activity [32]: 0.24 mmol/L; Ratio Ki [33]: 3.6; Ratio Ki [34]: 175
O=C1c2cc(Oc3ccc(OCc4cn(CCCN5C[C@H](O)[C@@H](O)[C@H](O)[C@H]5CO)nn4)cc3)c3c4c(Oc5ccc(OCc6cn(CCCN7C[C@H](O)[C@@H](O)[C@H](O)[C@H]7CO)nn6)cc5)cc5c6c(cc(Oc7ccc(OCc8cn(CCCN9C[C@H](O)[C@@H](O)[C@H](O)[C@H]9CO)nn8)cc7)c(c7c(Oc8ccc(OCc9cn(CCCN%10C[C@H](O)[C@@H](O)[C@H](O)[C@H]%10CO)nn9)cc8)cc(c2c37)C(=O)N1Cc1cn(CCCN2C[C@H](O)[C@@H](O)[C@H](O)[C@H]2CO)nn1)c64)C(=O)N(Cc1cn(CCCN2C[C@H](O)[C@@H](O)[C@H](O)[C@H]2CO)nn1)C5=O | 20 | 18900 | 279.6 | 243.36 | 229.32 | 24.7 | 37 | 40.4 | 24.4 | 34.6 | 37.8 | 2.1 | 140 | 80 | 92 | 2.1 | Non-Toxic | Non-Toxic | Non-Toxic | Non-Toxic | Activity [21]: Non-Toxic; Activity [22]: Non-Toxic; Activity [35]: 269.71 U/L; Activity [36]: 59.14 U/L; Activity [25]: Non-Toxic; Activity [26]: Non-Toxic; Activity [37]: 8.63 mmol/L; Activity [38]: 242.06 µmol/L; Activity [29]: Non-Toxic; Activity [30]: Non-Toxic; Activity [31]: Non-Toxic; Activity [32]: 0.3 mmol/L; Ratio Ki [33]: 1.5; Ratio Ki [34]: 219
